# “Also recorded” adds a separate entry of the source.
# Columns and labels:
# [1] = target: human Mcl-1 (Homo sapiens, UniProt Q07820); assay: FPA competition assay, displacement of FITC-Bak-BH3 peptide from Mcl-1; assay type: binding; conditions: for LE (ligand efficiency): binding to Mcl-1; for higher Mcl-1 Ki values compared to the corresponding four-atom linker analogs: three-atom linker compounds; for improvement in Mcl-1 affinity compared to the core fragment 3: compared to fragment 3; for increased affinity for Mcl-1 compared to the initial fragment 2: four-atom linker compounds
# [2] = target: cellular Mcl-1 (Homo sapiens, UniProt Q07820); assay: Biotin streptavidin pull-down experiment in K562 cell lysates; assay type: binding; conditions: Western blot
# Chain of cellular Mcl-1 (Q07820 whole entry): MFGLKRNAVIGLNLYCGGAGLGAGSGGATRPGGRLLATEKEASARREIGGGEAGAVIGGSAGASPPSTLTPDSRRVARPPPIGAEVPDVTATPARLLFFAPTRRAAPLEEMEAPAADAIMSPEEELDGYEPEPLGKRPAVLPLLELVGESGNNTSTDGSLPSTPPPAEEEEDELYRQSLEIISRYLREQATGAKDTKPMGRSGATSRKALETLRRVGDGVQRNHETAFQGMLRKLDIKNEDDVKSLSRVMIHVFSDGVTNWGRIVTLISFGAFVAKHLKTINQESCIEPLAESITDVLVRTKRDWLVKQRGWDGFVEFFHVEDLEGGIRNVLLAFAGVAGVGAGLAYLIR
# Chain of human Mcl-1 (Q07820 172-327): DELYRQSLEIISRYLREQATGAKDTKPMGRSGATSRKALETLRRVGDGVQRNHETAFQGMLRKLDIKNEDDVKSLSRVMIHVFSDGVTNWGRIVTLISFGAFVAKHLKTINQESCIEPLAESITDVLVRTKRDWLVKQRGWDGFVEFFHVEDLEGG
structure (smiles),measurement,setting,value
CC1Cn2c(C(=O)O)cc3cccc(c32)S1 (stereo not shown) [Compound 2],LE (ligand efficiency),[1],0.38
"O=C(O)c1c(CCOc2cccc3ccccc23)c2cccc3c2n1CCO3 [Compound 18, 6-(2-(Naphthalen-1-yloxy)ethyl)-2,3-dihydro-[1,4]oxazino[2,3,4-hi]indole-5-carboxylic acid]",higher Mcl-1 Ki values compared to the corresponding four-atom linker analogs,[1],> 10 fold
"O=C(O)c1c(CCOc2cccc3ccccc23)c2cccc3c2n1CCS3 [Compound 16, 6-(2-(Naphthalen-1-yloxy)ethyl)-2,3-dihydro-[1,4]thiazino[2,3,4-hi]indole-5-carboxylic acid]",higher Mcl-1 Ki values compared to the corresponding four-atom linker analogs,[1],> 10 fold
"Cc1c(C(=O)O)n2c3c(cccc13)OCC2 [Compound 7, 6-Methyl-2,3-dihydro-[1,4]oxazino[2,3,4-hi]indole-5-carboxylic acid]",LE (ligand efficiency),[1],0.41
"Cc1cc(OCCCc2c(C(=O)O)n3c4c(cccc24)SCC3)ccc1Cl [Compound 29, 6-(3-(4-Chloro-3-methylphenoxy)propyl)-2,3-dihydro-[1,4]thiazino[2,3,4-hi]indole-5-carboxylic acid]",improvement in Mcl-1 affinity compared to the core fragment 3,[1],240 fold
"O=C(O)c1c(CCCOc2ccc3c(c2)CCCC3)c2cccc3c2n1CCS3 [Compound 28, 6-(3-((5,6,7,8-Tetrahydronaphthalen-2-yl)oxy)propyl)-2,3-dihydro-[1,4]thiazino[2,3,4-hi]indole-5-carboxylic acid]",reduction in affinity to Mcl-1,[1]; compared to regioisomer 26 and 1-naphthyl analog 19,3 fold
"O=C(O)c1c(CCOc2cccc3ccccc23)c2cccc3c2n1CCC3 [Compound 17, 1-(2-(Naphthalen-1-yloxy)ethyl)-5,6-dihydro-4H-pyrrolo[3,2,1-ij]quinoline-2-carboxylic acid]",higher Mcl-1 Ki values compared to the corresponding four-atom linker analogs,[1],> 10 fold
O=C(O)c1cc2cccc3c2n1CCS3 [Compound 3],LE (ligand efficiency),[1],0.39
"Cc1c(C(=O)O)n2c3c(cccc13)SCC2 [Compound 5, 6-Methyl-2,3-dihydro-[1,4]thiazino[2,3,4-hi]indole-5-carboxylic acid]",LE (ligand efficiency),[1],0.41
"O=C(O)c1c(CCCOc2cccc3ccccc23)c2cccc3c2n1CCS3 [Compound 19, 6-(3-(Naphthalen-1-yloxy)propyl)-2,3-dihydro-[1,4]thiazino[2,3,4-hi]indole-5-carboxylic acid]",increased affinity for Mcl-1 compared to the initial fragment 2,[1],more than 2 orders of magnitude
"Cc1cc(OCCCc2c(C(=O)O)n3c4c(c(Cl)ccc24)CCC3)cc(C)c1Cl [Compound 34, 7-chloro-1-(3-(4-chloro-3,5-dimethylphenoxy)propyl)-5,6-dihydro-4H-pyrrolo[3,2,1-ij]quinoline-2-carboxylic acid]",inhibition of biotin-MS-1 pulldown of cellular Mcl-1,[2],blocks the interaction with biotin MS-1 in a dose-dependent manner; also recorded: inhibits binding of biotin-MS-1 to Mcl-1 in cell lysates
"O=C(O)c1c(CCCOc2cccc3ccccc23)c2cccc3c2n1CCO3 [Compound 21, 6-(3-(Naphthalen-1-yloxy)propyl)-2,3-dihydro-[1,4]oxazino[2,3,4-hi]indole-5-carboxylic acid]",increased affinity for Mcl-1 compared to the initial fragment 2,[1],more than 2 orders of magnitude
"Cc1c(C(=O)O)n2c3c(cccc13)CCC2 [Compound 6, 1-Methyl-5,6-dihydro-4H-pyrrolo[3,2,1-ij]quinoline-2-carboxylic acid]",LE (ligand efficiency),[1],0.35
"Cc1cc(OCCCc2c(C(=O)O)n3c4c(cccc24)SCC3)cc(C)c1Cl [Compound 30, 6-(3-(4-chloro-3,5-dimethylphenoxy)propyl)-2,3-dihydro-[1,4]thiazino[2,3,4-hi]indole-5-carboxylic acid]",improvement in Mcl-1 affinity compared to the core fragment 3,[1],720 fold
"O=C(O)c1c(CCCOc2cccc3ccccc23)c2cccc3c2n1CCC3 [Compound 20, 1-(3-(Naphthalen-1-yloxy)propyl)-5,6-dihydro-4H-pyrrolo[3,2,1-ij]quinoline-2-carboxylic acid]",increased affinity for Mcl-1 compared to the initial fragment 2,[1],more than 2 orders of magnitude
O=C(O)c1cc2cccc3c2n1CCC3 [Compound 4],LE (ligand efficiency),[1],0.35
